Results taken from ChEMBL document CHEMBL1201862, “PubChem BioAssay data set” (2004).
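Interpolation was linear, between the two tested concentrations surrounding the appropriate level; five concentrations were tested over 48 hours in 96-well plates. GI50: concentration for 50% inhibition of growth.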 Active and inactive are the calls of the source. Cut-off read from the data, not from the text of the source: active = GI50 up to about 1.1 µM and inactive = higher.

Columns and labels:
Test in all cases: growth of human tumour cells (NCI), 48 h
[1] = tested on: ACHN
[2] = tested on: MCF7
[3] = tested on: TK-10
[4] = tested on: UO-31
[5] = tested on: M14
[6] = tested on: NCI-H522
[7] = tested on: SN12C
[8] = tested on: HL-60
[9] = tested on: HCC 2998
[10] = tested on: A549
[11] = tested on: SK-MEL-5
[12] = tested on: SF-295
[13] = tested on: K562
[14] = tested on: SNB-19
[15] = tested on: NCI-H226
[16] = tested on: U-251
[17] = tested on: OVCAR-5
[18] = tested on: SNB-75
[19] = tested on: RPMI-8226
[20] = tested on: OVCAR-4

SMILES	GI50 [1]	GI50 [2]	GI50 [3]	GI50 [4]	GI50 [5]	GI50 [6]	GI50 [7]	GI50 [8]	GI50 [9]	GI50 [10]	GI50 [11]	GI50 [12]	GI50 [13]	GI50 [14]	GI50 [15]	GI50 [16]	GI50 [17]	GI50 [18]	GI50 [19]	GI50 [20]
Fc1c(F)c(F)c(CSc2nc3ccccc3[nH]2)c(F)c1F	> 100 µM (inactive)	> 100 µM (inactive)	> 100 µM (inactive)	> 100 µM (inactive)	> 100 µM (inactive)	> 100 µM (inactive)	> 100 µM (inactive)	> 100 µM (inactive)	> 100 µM (inactive)	> 100 µM (inactive)	> 100 µM (inactive)	> 100 µM (inactive)	> 100 µM (inactive)	> 100 µM (inactive)	> 100 µM (inactive)	> 100 µM (inactive)	> 100 µM (inactive)	> 100 µM (inactive)	> 100 µM (inactive)	> 100 µM (inactive)
CCOC(=O)CNC(=O)C(CCC(=O)N(C)O)NC(=O)CCC(N)C(=O)O (stereo not given)	> 100 µM (inactive)	> 100 µM (inactive)	> 100 µM (inactive)	> 100 µM (inactive)	> 100 µM (inactive)	> 100 µM (inactive)	> 100 µM (inactive)	> 100 µM (inactive)	> 100 µM (inactive)	> 100 µM (inactive)	> 100 µM (inactive)	> 100 µM (inactive)	> 100 µM (inactive)	> 100 µM (inactive)	> 100 µM (inactive)	> 100 µM (inactive)	> 100 µM (inactive)	> 100 µM (inactive)	> 100 µM (inactive)	> 100 µM (inactive)
Cc1ccc([N+](=O)[O-])cc1S(=O)(=O)Nc1ccc(C2=NNC(c3cccs3)C2)cc1 (stereo not given)	20.7 µM (inactive)	13.7 µM (inactive)	–	5.32 µM (inactive)	25.5 µM (inactive)	24.7 µM (inactive)	29.2 µM (inactive)	0.0627 µM (active)	30.8 µM (inactive)	22.9 µM (inactive)	17.4 µM (inactive)	6.67 µM (inactive)	17.4 µM (inactive)	28.8 µM (inactive)	49.7 µM (inactive)	–	58.9 µM (inactive)	31.3 µM (inactive)	16.6 µM (inactive)	22 µM (inactive)
CN(C)CCSc1nccc(-c2ccc(-c3ccnc(SCCN(C)C)n3)s2)n1	–	4.45 µM (inactive)	–	4.94 µM (inactive)	–	15.9 µM (inactive)	6.75 µM (inactive)	2.37 µM (inactive)	6.08 µM (inactive)	12.4 µM (inactive)	15.9 µM (inactive)	10.7 µM (inactive)	6.08 µM (inactive)	11.1 µM (inactive)	12.9 µM (inactive)	12.9 µM (inactive)	9.1 µM (inactive)	14.4 µM (inactive)	2.69 µM (inactive)	4.13 µM (inactive)
COc1nc(N)nc2nc[nH]c12	328 µM (inactive)	490 µM (inactive)	242 µM (inactive)	239 µM (inactive)	478 µM (inactive)	440 µM (inactive)	441 µM (inactive)	383 µM (inactive)	> 500 µM (inactive)	> 500 µM (inactive)	> 500 µM (inactive)	> 500 µM (inactive)	> 500 µM (inactive)	> 500 µM (inactive)	318 µM (inactive)	488 µM (inactive)	345 µM (inactive)	208 µM (inactive)	417 µM (inactive)	479 µM (inactive)
